Source: ChEMBL document CHEMBL5725933, “Amino compounds for treatment of complement mediated disorders” (2017)

Target: Complement factor D (Homo sapiens, UniProt P00746)
Assay: Factor D Assay: Human factor D (purified from human serum, Complement Technology, Inc.) at 80 nM final concentration is incubated with test compound at various concentrations for 5 minutes at room temperature in 50 mM Tris, 1M NaCl, pH 7.5. A synthetic substrate Z-L-Lys-SBz1 and DTNB (Ellman's reagent) are added to final concentrations of 100 μM each. The increase in color is recorded at OD405 nm in a microplate in kinetic mode over 30 minutes with 30 second time points in a spectrofluorimeter. IC50 values are calculated by non-linear regression from the percentage of inhibition of complement factor D activity as a function of test compound concentration.

Sequence of Complement factor D (P00746 whole entry): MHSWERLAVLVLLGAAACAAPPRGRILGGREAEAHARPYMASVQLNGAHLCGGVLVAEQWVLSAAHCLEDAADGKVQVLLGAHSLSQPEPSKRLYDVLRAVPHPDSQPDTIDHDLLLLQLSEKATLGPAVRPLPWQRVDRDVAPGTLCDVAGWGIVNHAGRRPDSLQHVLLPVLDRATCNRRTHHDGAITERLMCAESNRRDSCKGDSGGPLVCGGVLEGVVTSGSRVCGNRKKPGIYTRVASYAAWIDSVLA

CC(=O)c1cn(CC(=O)N2C[C@H](F)C[C@H]2C(=O)Nc2cccc(Br)n2)c2ccc(Nc3cncc(F)c3)cc12
IC50: < 1000 nM
